Experiment [1] has as its system A. baumannii. Put plainly: Gram negative MIC protocol (OD600, LB, 24 h). The conditions noted are these: Acinetobacter baumannii.
Method: (§1) Overnight bacterial cultures were grown in LB with no added antibiotics at 37° C. with shaking. A 1:1000 dilution of these cultures into LB was exposed to concentration gradients of compounds in 96-well plates (100 μL per well assay volume). Resulting plates were incubated at 37° C. for 24 h without shaking, and OD600 was measured at the end of the incubation. MICs were determined as the lowest concentrations at which OD600 remained at baseline.
For experiment [2], the system named is E. coli. The experiment in a line: Gram negative MIC protocol (OD600, LB, 24 h). The conditions noted are these: Escherichia coli.
Method: as §1
Experiment [3] deals with H37RvMA. Put plainly: Tuberculosis Alamar Blue/Resazurin assay (MIC). The class given is cell-based. The following applies: Mycobacterium tuberculosis, H37RV, read-out: WT H37Rv MTB Activity.
The mark [4] stands for this setting: read-out: MIC A. baumannii LB Media, A. baumannii, LB media, 24 h, OD600.
Setting [5] is: read-out: MIC E. coli delta-TolC LB Media, E. coli delta-TolC, LB media, OD600.
The mark [6] stands for this setting: read-out: MIC WT E. coli LB Media, WT E. coli, LB media, OD600.
The mark [7] stands for this setting: read-out: MIC A. baumannii LB Media.
Where [8] appears, read: read-out: MIC E. coli delta-TolC LB Media, E. coli delta-TolC strain, LB media, 24 h, OD600.
[9] abbreviates: read-out: MIC WT E. coli LB Media, wild-type E. coli, LB media, 24 h, OD600.

Molecules are shown by their SMILES. In brackets after ≈: the same amount, converted by molar mass. Counter-ions that a name gives are not always drawn. Like-named read-outs stand apart in the source and are kept apart here.

Turning to `Cc1ccc2ncc(CCNCc3ccccc3)cc2c1` [B117], the MIC in experiment [1] (setting [4]), in experiment [2] (setting [5]), in experiment [2] (setting [6]) and in experiment [3] (WT H37Rv MTB) was > 150 µM in each case.

Take `O=C1c2ccccc2CN1CCC1CCCCC1` [B419, 2-(2-cyclohexylethyl)isoindolin-1-one]: the MIC in experiment [1] (setting [4]) was > 150 µM; in experiment [2] (setting [5]), 150 µM (≈ 36.5 µg/mL); in experiment [2] (setting [6]) it was > 150 µM; in experiment [3] (WT H37Rv MTB), 0.6 µM (≈ 0.146 µg/mL).

In the case of `C1=C(CCNCc2ccncc2)CCCC1` [B3], the MIC in experiment [1] (setting [4]), in experiment [2] (setting [5]), in experiment [2] (setting [6]) and in experiment [3] (WT H37Rv MTB) was > 150 µM throughout.

Turning to `C[C@@H](Cc1ccccc1)NCc1ccccc1` [B217], the MIC in experiment [1] (setting [7]) is > 300 µM; in experiment [2] (setting [8]) it was > 300 µM; in experiment [2] (setting [9]) it was > 300 µM; in experiment [3], > 150 µM.

On to `CC(CC1CCCCC1)NCc1ccccc1CS(=O)(=O)N[C@H]1C[C@@H](C(=O)O)C1` (stereo partly drawn) [B453, (1S,3S)-3-(((2-(((1-cyclohexylpropan-2-yl)amino)methyl)phenyl)methyl)sulfonamido)cyclobutane-1-carboxylic acid], for which the MIC in experiment [1] (setting [4]) is > 150 µM; in experiment [2] (setting [5]), 20 µM (≈ 8.45 µg/mL); in experiment [2] (setting [6]), > 150 µM; in experiment [3] (WT H37Rv MTB), > 150 µM.

Consider `COC1CCCCC1CCNCc1ccccc1` (centres unmarked) [B190], for which the MIC in experiment [1] (setting [4]) is > 300 µM; in experiment [2] (setting [5]) it was > 300 µM; in experiment [2] (setting [6]), > 300 µM; in experiment [3] (WT H37Rv MTB), > 150 µM.

As for `c1ccc(CNCCC2CCCCO2)cc1` (centres unmarked) [B222], the MIC in experiment [1] (setting [4]) is > 300 µM; in experiment [2] (setting [8]), > 150 µM; in experiment [2] (setting [9]), > 300 µM; in experiment [3] (WT H37Rv MTB), > 150 µM.

`CCC(CC1CCCCC1)NCc1ccccc1` (centres unmarked) [B164, N-benzyl-1-cyclohexylbutan-2-amine]: the MIC in experiment [1] (setting [4]) was > 150 µM; in experiment [2] (setting [5]) it was 60 µM (≈ 14.7 µg/mL); in experiment [2] (setting [6]), > 300 µM; in experiment [3] (WT H37Rv MTB) it was > 150 µM.

Take `C1=C(CC2CCCCN2Cc2ccccc2)CCCC1` (centres unmarked) [B163]: the MIC is > 150 µM in experiment [1] (setting [4]), 300 µM (≈ 80.8 µg/mL) in experiment [2] (setting [5]), > 300 µM in experiment [2] (setting [6]) and > 150 µM in experiment [3] (WT H37Rv MTB).

As to `CC(C)(CNCc1ccccc1)C1=CCCC1` [B74], the MIC in experiment [1] (setting [4]), in experiment [2] (setting [5]), in experiment [2] (setting [6]) and in experiment [3] (WT H37Rv MTB) was > 150 µM each time.

Take `C[C@H](NCc1ccccc1)C12CC3CC(CC(C3)C1)C2` [B197]: the MIC in experiment [1] (setting [4]) is 300 µM (≈ 80.8 µg/mL); in experiment [2] (setting [5]), 96 µM (≈ 25.9 µg/mL); in experiment [2] (setting [6]), 170 µM (≈ 45.8 µg/mL); in experiment [3] (WT H37Rv MTB) it was > 150 µM.

As to `COc1ccc(OCCCOc2ccccc2CNC(C)CC2CCCCC2)cc1` (centres unmarked) [B271], the MIC in experiment [1] (setting [4]) was determined as 55 µM (≈ 22.6 µg/mL); in experiment [2] (setting [8]), 3 µM (≈ 1.23 µg/mL); in experiment [2] (setting [9]), 150 µM (≈ 61.7 µg/mL); in experiment [3] (WT H37Rv MTB), 55 µM (≈ 22.6 µg/mL).

As for `Cc1ccc(COc2ccccc2CNC(C)CC2CCCCC2)cc1` (centres unmarked) [B460, 1-cyclohexyl-N-(2-((4-methylbenzyl)oxy)benzyl)propan-2-amine], the MIC in experiment [1] (setting [4]) is 33 µM (≈ 11.6 µg/mL); in experiment [2] (setting [5]) it was < 1 µM; in experiment [2] (setting [6]), 33 µM (≈ 11.6 µg/mL); in experiment [3] (WT H37Rv MTB) it was 10 µM (≈ 3.52 µg/mL).

Consider `CC(C)(CN1CCCOCC1)NCc1ccccc1` [B90], for which the MIC in experiment [1] (setting [4]), in experiment [2] (setting [5]), in experiment [2] (setting [6]) and in experiment [3] (WT H37Rv MTB) was > 150 µM throughout.

As to `c1ccc(CNCC2CC3CCC2C3)cc1` (centres unmarked) [B43], the MIC in experiment [1] (setting [4]), in experiment [2] (setting [5]), in experiment [2] (setting [6]) and in experiment [3] (WT H37Rv MTB) was > 150 µM each time.

Turning to `FC1(F)CCC(CCNCc2ccccc2)CC1` [B212, N-benzyl-2-(4,4-difluorocyclohexyl)ethanamine hydrochloride], the MIC was > 300 µM in experiment [1] (setting [4]), > 300 µM in experiment [2] (setting [8]), > 300 µM in experiment [2] (setting [9]) and > 150 µM in experiment [3] (WT H37Rv MTB).

As for `OCC(CC1CCCCC1)NCc1ccccc1` (centres unmarked) [B168, 2-(benzylamino)-3-cyclohexylpropan-1-ol], the MIC is 410 µM (≈ 101 µg/mL) in experiment [1] (setting [7]), 182 µM (≈ 45 µg/mL) in experiment [2] (setting [5]), 170 µM (≈ 42.1 µg/mL) in experiment [2] (setting [6]) and > 150 µM in experiment [3].

Turning to `Cc1ccccc1CNCCC1=CCCCC1` [B13, 2-(cyclohex-1-en-1-yl)-N-(2-methylbenzyl)ethan-1-amine], the MIC was 150 µM (≈ 34.4 µg/mL) in experiment [1] (setting [4]), 55 µM (≈ 12.6 µg/mL) in experiment [2] (setting [5]), 90 µM (≈ 20.6 µg/mL) in experiment [2] (setting [6]) and > 150 µM in experiment [3] (WT H37Rv MTB).

Take `CC(C)c1ccccc1CNCCC1CCCCC1` [B227, 2-cyclohexyl-N-(2-isopropylbenzyl)ethanamine hydrochloride]: the MIC amounted to 170 µM in experiment [1] (setting [4]), 12 µM in experiment [2] (setting [8]), 170 µM in experiment [2] (setting [9]) and 150 µM in experiment [3] (WT H37Rv MTB).

With `CC(NCc1ccccc1)C12C[C@H]3C[C@H](C1)C[C@@H](C2)C3` (some centres unmarked) [B80], the MIC in experiment [1] (setting [4]) was > 150 µM; in experiment [2] (setting [5]), 90 µM (≈ 24.2 µg/mL); in experiment [2] (setting [6]), 250 µM (≈ 67.4 µg/mL); in experiment [3] (WT H37Rv MTB), > 150 µM.

These data come from US11261201B2 (priority 2018, dated 2022).
